What was measured:
[1] = Pharmacokinetics in mice after single oral dosing (blood/plasma and liver exposure); format: in vivo, mice (C57/bl6/J)
Procedure: The pharmacokinetics of the compounds was assessed in mice after single dosing and oral administrations. Blood/plasma and liver exposure was measured via LC-MS.
The study design was as follows:
Animals: C57/bl6/J (Janvier) males
Diet: standard rodent chow
Animal handling: animals were withdrawn from food at least 12 h before administration
Design: single dose oral administration, n=3 animals per group
Sacrifice: at stated time point (4, 12 or 24 h) after administration
Bioanalytics: LC-MS of liver and blood/plasma samples

[2] = target: T1, ligand-binding domain (LBD) of LXRα (Homo sapiens, UniProt Q13133); assay: LXR Gal4 reporter transient transfection assay (LBD-M2H Gal4α); format: cell-based; settings: HEK293 cells, LXRα LBD; read-out: LBD-M2H Gal4α (EC50 range)
T1 construct: expressed in transfected cells; host or cells: HEK293
T1 sequence (Q13133 155-447): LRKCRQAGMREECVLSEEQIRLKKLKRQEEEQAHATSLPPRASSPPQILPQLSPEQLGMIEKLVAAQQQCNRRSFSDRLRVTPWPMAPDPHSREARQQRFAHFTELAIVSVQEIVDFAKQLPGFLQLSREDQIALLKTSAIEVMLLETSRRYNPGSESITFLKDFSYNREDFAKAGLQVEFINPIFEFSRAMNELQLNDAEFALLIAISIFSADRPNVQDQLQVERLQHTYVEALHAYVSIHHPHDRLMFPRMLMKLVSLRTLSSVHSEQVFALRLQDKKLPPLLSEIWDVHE
Procedure: The tested compounds were usually dissolved, tested and stored as 20 mM stock solutions in DMSO. Since sulfonyl acetic acid derivatives tend to decarboxylate under these conditions, these stock solutions were prepared, tested and stored as 20 mM DMSO stock solutions containing 100 mM trifluoroacetic Acid (5 equivalents). Sulfonyl acetic acid derivatives are shelf stable as solid at rt for long time as reported by Griesbrecht et al. (Synlett 2010:374) or Faucher et al. (J. Med. Chem. 2004; 47:18).
LXR Gal4 Reporter Transient Transfection Assays
LXRα and LXRβ activity status was determined via detection of interaction with coactivator and corepressor proteins in mammalian two-hybrid experiments (M2H). For this, via transient transfection the full length (FL) proteins of LXRα (amino acids 1-447; NP005684; SEQ ID NO:1) or LXRβ-(amino acids 1-461; NP009052; SEQ ID NO:2) or the ligand-binding domains (LBD) of LXRα (amino acids 155-447 SEQ ID NO:3) or LXRβ (amino acids 156-461; SEQ ID NO:4) were expressed from pCMV-AD (Stratagene) as fusions to the transcriptional activation domain of NFkB. As cofactors, domains of either the steroid receptor coactivator 1 (SRC1; amino acids 552-887; SEQ ID NO:5) or of the corepressor NCoR (amino acids 1906-2312; NP006302; SEQ ID NO:6) were expressed as fusions to the DNA binding domain of the yeast transcription factor GAL4 (from pCMV-BD; Stratagene). Interaction was monitored via activation of a coexpressed Firefly Luciferase Reporter gene under control of a promoter containing repetitive GAL4 response elements (vector pFRLuc; Stratagene). Transfection efficiency was controlled via cotransfection of constitutively active pRL-CMV Renila reniformis luciferase reporter (Promega). HEK293 cells were grown in minimum essential medium (MEM) with 2 mM L-glutamine and Earle's balanced salt solution supplemented with 8.3% fetal bovine serum, 0.1 mM non-essential amino acids, 1 mM sodium pyruvate, at 37° C. in 5% CO2. 3.5×10^4 cells/well were plated in 96-well cell culture plates in growth medium supplemented with 8.3% fetal bovine serum for 16-20 h to ˜90% confluency. For transfection, medium was taken off and LXR and cofactor expressing plasmids as well as the reporter plasmids are added in 30 μL OPTIMEM/well including polyethylene-imine (PEI) as vehicle. Typical amounts of plasmids transfected/well: pCMV-AD-LXR (5 ng), pCMV-BD-cofactor (5 ng), pFR-Luc (100 ng), pRL-CMV (0.5 ng). Compound stocks were prepared in DMSO, prediluted in MEM to a total volume of 120 μL, and added 4 h after addition of the transfection mixture (final vehicle concentration not exceeding 0.2%). Cells were incubated for additional 16 h, lysed for 10 min in 1× Passive Lysis Buffer (Promega) and Firefly and Renilla luciferase activities were measured sequentially in the same cell extract using buffers containing D-luciferine and coelenterazine, respectively. Measurements of luminescence were done in a BMG-luminometer.

[3] = target: T2, ligand-binding domain (LBD) of LXRβ (Homo sapiens, UniProt P55055, DUP175-175); assay: LXR Gal4 reporter transient transfection assay (LBD-M2H Gal4β); format: cell-based; settings: HEK293 cells, LXRβ LBD; read-out: LBD-M2H Gal4β (EC50 range)
T2 construct: LXRβ (amino acids 156-461); expressed in transfected cells; host or cells: HEK293
T2 sequence (P55055 with tags, fused parts or gaps DUP175-175 limits assumed): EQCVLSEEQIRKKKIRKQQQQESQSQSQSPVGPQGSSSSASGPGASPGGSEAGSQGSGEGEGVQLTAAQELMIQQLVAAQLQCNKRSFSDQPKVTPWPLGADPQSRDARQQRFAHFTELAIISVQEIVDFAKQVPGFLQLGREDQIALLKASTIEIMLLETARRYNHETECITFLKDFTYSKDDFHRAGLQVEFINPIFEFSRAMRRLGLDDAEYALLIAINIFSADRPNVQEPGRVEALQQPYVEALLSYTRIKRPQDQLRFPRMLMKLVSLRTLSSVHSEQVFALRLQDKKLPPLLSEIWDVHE
How it was run: (§1)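 Mammalian two-hybrid in HEK293 cells transiently transfected with NFkB-AD-fused FL or LBD LXR plus GAL4-BD-fused SRC1 or NCoR cofactor domains and GAL4-responsive firefly luciferase reporter, Renilla-normalized. Compound added 4 h post-transfection (≤0.2% DMSO), 16 h incubation, luminescence read.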

full length (FL) LXRα = target: T3, full length (FL) LXRα (Homo sapiens, UniProt Q13133); assay: LXR Gal4 reporter transient transfection assay (FL-M2H Gal4α); format: cell-based; settings: HEK293 cells, full length LXRα; read-out: FL-M2H Gal4α (EC50 range)
T3 construct: the full length (FL) proteins of LXRα (amino acids 1-447); NP005684; expressed in transfected cells; host or cells: HEK293
T3 sequence (Q13133 1-447): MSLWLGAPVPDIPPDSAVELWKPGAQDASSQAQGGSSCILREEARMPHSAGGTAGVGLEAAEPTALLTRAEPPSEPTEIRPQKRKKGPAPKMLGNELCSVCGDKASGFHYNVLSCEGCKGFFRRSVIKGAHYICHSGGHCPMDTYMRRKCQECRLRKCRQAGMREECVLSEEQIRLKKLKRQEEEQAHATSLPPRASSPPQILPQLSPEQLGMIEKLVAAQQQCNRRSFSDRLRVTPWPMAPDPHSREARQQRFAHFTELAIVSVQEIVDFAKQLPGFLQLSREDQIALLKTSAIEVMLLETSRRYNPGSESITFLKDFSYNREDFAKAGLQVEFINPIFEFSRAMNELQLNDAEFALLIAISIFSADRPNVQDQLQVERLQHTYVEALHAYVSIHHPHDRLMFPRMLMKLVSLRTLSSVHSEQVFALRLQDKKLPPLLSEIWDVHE
How it was run: as §1

full length (FL) LXRβ = target: T4, full length (FL) LXRβ (Homo sapiens, UniProt P55055, DUP175-175); assay: LXR Gal4 reporter transient transfection assay (FL-M2H Gal4β); format: cell-based; settings: HEK293 cells, full length LXRβ; read-out: FL-M2H Gal4β (EC50 range)
T4 construct: the full length (FL) proteins of LXRα (amino acids 1-447); NP005684; NP009052; expressed in transfected cells; host or cells: HEK293
T4 sequence (P55055 with tags, fused parts or gaps DUP175-175): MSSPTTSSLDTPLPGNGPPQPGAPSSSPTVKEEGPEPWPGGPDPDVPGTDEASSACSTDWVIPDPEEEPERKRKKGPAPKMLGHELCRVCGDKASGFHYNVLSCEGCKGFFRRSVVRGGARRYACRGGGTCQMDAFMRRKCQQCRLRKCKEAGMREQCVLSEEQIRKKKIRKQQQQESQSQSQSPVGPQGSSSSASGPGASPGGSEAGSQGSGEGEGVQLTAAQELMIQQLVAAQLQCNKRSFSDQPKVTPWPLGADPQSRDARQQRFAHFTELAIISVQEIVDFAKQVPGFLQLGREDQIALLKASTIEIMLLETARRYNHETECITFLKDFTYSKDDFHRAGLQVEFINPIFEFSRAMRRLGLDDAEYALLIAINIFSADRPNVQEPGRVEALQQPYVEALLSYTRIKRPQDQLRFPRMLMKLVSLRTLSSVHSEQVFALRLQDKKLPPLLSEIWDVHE
How it was run: as §1

[4] = target: T5, LXRβ ligand-binding domain (Homo sapiens, UniProt P55055, DUP175-175); assay: TR-FRETβ activity assay (NCoA3 coactivator peptide recruitment); format: biochemical; settings: TR-FRET, 1 μM 24(S)-25-epoxycholesterol prestimulation; read-out: FRETβ (EC50 range)
T5 construct: amino acids 156-461; NP009052; made in house; host or cells: E. coli
T5 sequence (P55055 with tags, fused parts or gaps DUP175-175 limits assumed): T2 sequence (P55055 with tags, fused parts or gaps DUP175-175 limits assumed)
How it was run: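 Inverse agonism assessed by loss of coactivator recruitment, read as TR-FRET 665/615 nm after 1 h equilibration at 4 °C, in triplicate. Ten-point titration from 50 μM to 0.002 μM against LXRβ LBD (76 nM, GST fusion) prestimulated with 1 μM 24(S)-25-epoxycholesterol, with 400 nM NCoA3 peptide, pH 6.8. Sulfonyl acetic acids kept as 20 mM DMSO stocks with 100 mM TFA.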

[5] = 20 mg/kg single oral dose, time point 4 h

| SMILES | blood/plasma exposure (below LLOQ, LLOQ value not given) [1, 5] | oral bioavailability (in words) ([1]; oral administration) | EC50 [2] | EC50 [3] | EC50 (full length (FL) LXRα) | EC50 (full length (FL) LXRβ) | blood/plasma exposure [1, 5] | liver exposure [1, 5] | liver/blood ratio [1, 5] | EC50 [4] |
| --- | --- | --- | --- | --- | --- | --- | --- | --- | --- | --- |
| CCOC(=O)c1ccc(CN(Cc2ccc(-c3cccc(S(C)(=O)=O)c3)cc2)S(=O)(=O)c2c(C)cc(C)cc2C)o1 [SR9238, reference compound] | LLOQ | not orally bioavailable | – | – | – | – | – | – | – | – |
| N#Cc1sccc1-c1c(-c2cccc(C3CC3C(=O)O)c2)n(S(=O)(=O)c2ccc(Cl)cc2)c2ccc(F)cc12 (centres unmarked) [3/24] | – | – | < 100 nM | < 100 nM | < 100 nM | < 100 nM | D (D: <100 nM) | C (C: 1 μM to ≤3 μM) | D (D: >30) | – |
| N#Cc1sccc1-c1c(-c2cccc(N3CC(C(=O)O)C3)c2)n(S(=O)(=O)c2ccc(Cl)cc2)c2ccccc12 [30/7] | – | – | < 100 nM | < 100 nM | – | – | D (D: <100 nM) | B (B: 300 nM to ≤1 μM) | D (D: >30) | 100 to 1000 nM |
| N#Cc1sccc1-c1c(-c2cccc(C3CC3C(=O)O)c2)n(S(=O)(=O)c2ccc(Cl)cc2)c2ccccc12 (centres unmarked) [30/4] | – | – | 100 to 1000 nM | < 100 nM | – | – | C (C: 100 nM to <300 nM) | C (C: 1 μM to ≤3 μM) | C (C: 10 to ≤30) | 1000 to 10000 nM |
| Cc1ccc(S(=O)(=O)n2c(-c3cccc(-c4ccc(CN5CCN(C)CC5)cc4)c3)c(-c3ccsc3C#N)c3cc(F)ccc32)cc1 [Example 8, 3-(5-Fluoro-2-(4′-((4-methylpiperazin-1-yl)methyl)-[1,1′-biphenyl]-3-yl)-1-tosyl-1H-indol-3-yl)thiophene-2-carbonitrile] | – | – | – | – | – | < 100 nM | B (B: 300 nM to ≤1 μM) | D (D: >3 μM) | B (B: 3 to ≤10) | 100 to 1000 nM |
| N#Cc1cc(F)ccc1-c1c(-c2cccs2)n(S(=O)(=O)c2ccc(Cl)cc2)c2ccccc12 [20/6] | – | – | 100 to 1000 nM | < 100 nM | – | – | – | – | – | 100 to 1000 nM |
| COc1ccc(S(=O)(=O)n2c(-c3ccccc3)c(-c3ccc4ncccc4c3C#N)c3ccccc32)cc1 [20/20] | – | – | 1000 to 10000 nM | 100 to 1000 nM | – | – | – | – | – | 1000 to 10000 nM |
| N#Cc1sccc1-c1c(-c2cccs2)n(S(=O)(=O)c2ccc(Cl)cc2)c2cc(OCCCC(=O)O)ccc12 [15/4] | – | – | 100 to 1000 nM | < 100 nM | – | – | – | – | – | 1000 to 10000 nM |
| Cc1cc(C)c(S(=O)(=O)n2c(-c3cccs3)c(-c3ccsc3C#N)c3ccccc32)c(C)c1 [1/26] | – | – | 100 to 1000 nM | < 100 nM | – | – | – | – | – | 1000 to 10000 nM |
| N#Cc1sccc1-c1c(-c2cccc(N3CCC(C(=O)O)C3)c2)n(S(=O)(=O)c2ccc(Cl)cc2)c2ccccc12 (centres unmarked) [30/11] | – | – | 100 to 1000 nM | < 100 nM | – | – | – | – | – | 100 to 1000 nM |
| N#Cc1sccc1-c1c(-c2cccc(N3CC(C(=O)O)C3)c2)n(S(=O)(=O)c2ccccc2)c2ccc(F)cc12 [3/9] | – | – | 100 to 1000 nM | < 100 nM | – | – | – | – | – | 1000 to 10000 nM |
| Cc1ccc(S(=O)(=O)n2c(-c3cccc(-c4cccc(C(=O)O)c4)c3)c(-c3ccsc3C#N)c3ccccc32)cc1 [30/1] | – | – | 100 to 1000 nM | < 100 nM | – | – | – | – | – | 100 to 1000 nM |

From patent US11618747B2, “LXR modulators with bicyclic core moiety” (OrsoBio, Inc., priority 2018, dated 2023)
